Legend:
[1] = human gut metagenome, 24 h, 2 µM
[2] = (§1) The drug is tested on WLS-006 corresponding to human gut metagenome with ENA study accession number: PRJEB37062 and ENA sample accession number: ERS12561741 for biotransformation under anaerobic condition. The drug concentrations were measured over 9 timepoints collected between 0 and 24 hours of incubation by liquid-chromatography-coupled mass spectrometry (LC–MS); conditions: 2 µM
[3] = as §1, with “Z-009” for “WLS-006”, “pig” for “human”, “ERS12561809” for “ERS12561741”; conditions: 2 µM
[4] = human gut metagenome, 24 h, 2 µM; remark: listed apart in the source
[5] = human gut metagenome, 24 h, 2 µM; remark: listed apart in the source
[6] = as §1, with “Z-024” for “WLS-006”, “pig” for “human”, “ERS12561823” for “ERS12561741”; conditions: 2 µM
[7] = as §1, with “Z-025” for “WLS-006”, “rabbit” for “human”, “ERS12561824” for “ERS12561741”; conditions: 2 µM
[8] = as §1, with “WLS-082” for “WLS-006”, “ERS12561751” for “ERS12561741”; conditions: 2 µM
[9] = as §1, with “WLS-073” for “WLS-006”, “ERS12561749” for “ERS12561741”; conditions: 2 µM
[10] = as §1, with “WLS-086” for “WLS-006”, “ERS12561752” for “ERS12561741”; conditions: 2 µM
[11] = as §1, with “Z-017” for “WLS-006”, “mouse” for “human”, “ERS12561816” for “ERS12561741”; conditions: 2 µM
[12] = human gut metagenome, 24 h, 2 µM; remark: listed apart in the source
[13] = as §1, with “Z-018” for “WLS-006”, “pig” for “human”, “ERS12561817” for “ERS12561741”; conditions: 2 µM
[14] = as §1, with “Z-005” for “WLS-006”, “to” for “to human gut”, “ERS12561805” for “ERS12561741”; conditions: 2 µM
[15] = human gut metagenome, 24 h, 2 µM; remark: listed apart in the source
[16] = as §1, with “Z-028” for “WLS-006”, “mouse” for “human”, “ERS12561827” for “ERS12561741”; conditions: 2 µM
[17] = human gut metagenome, 24 h, 2 µM; remark: listed apart in the source
[18] = human gut metagenome, 24 h, 2 µM; remark: listed apart in the source
[19] = human gut metagenome, 24 h, 2 µM; remark: listed apart in the source
[20] = human gut metagenome, 24 h, 2 µM; remark: listed apart in the source
Further: call rule not given here.

Bacterial Biotransformation [1] | Bacterial Biotransformation [2] | Bacterial Biotransformation [3] | Bacterial Biotransformation [4] | Bacterial Biotransformation [5] | Bacterial Biotransformation [6] | Bacterial Biotransformation [7] | Bacterial Biotransformation [8] | Bacterial Biotransformation [9] | Bacterial Biotransformation [10] | Bacterial Biotransformation [11] | Bacterial Biotransformation [12] | Bacterial Biotransformation [13] | Bacterial Biotransformation [14] | Bacterial Biotransformation [15] | Bacterial Biotransformation [16] | Bacterial Biotransformation [17] | Bacterial Biotransformation [18] | Bacterial Biotransformation [19] | Bacterial Biotransformation [20] | Structure (SMILES)
Compound metabolized | Compound metabolized | Compound metabolized | Compound metabolized | Compound metabolized | Compound metabolized | Compound metabolized | Compound metabolized | Compound metabolized | Compound metabolized | Compound NOT metabolized | Compound metabolized | Compound metabolized | Compound NOT metabolized | Compound metabolized | Compound NOT metabolized | Compound metabolized | Compound metabolized | Compound metabolized | Compound metabolized | CC(C)[C@H]1CC[C@H](C(=O)N[C@H](Cc2ccccc2)C(=O)O)CC1 [NATEGLINIDE]
Compound NOT metabolized | Compound metabolized | Compound metabolized | Compound NOT metabolized | Compound NOT metabolized | Compound metabolized | Compound metabolized | Compound NOT metabolized | Compound NOT metabolized | Compound NOT metabolized | Compound NOT metabolized | Compound NOT metabolized | Compound metabolized | Compound NOT metabolized | Compound metabolized | Compound NOT metabolized | Compound NOT metabolized | Compound NOT metabolized | Compound NOT metabolized | Compound NOT metabolized | Cc1ccccc1C(OCCN(C)C)c1ccccc1.O=C(O)CC(O)(CC(=O)O)C(=O)O (stereo not given) [ORPHENADRINE CITRATE]
Compound metabolized | Compound metabolized | Compound metabolized | Compound metabolized | Compound NOT metabolized | Compound metabolized | Compound metabolized | Compound metabolized | Compound metabolized | Compound NOT metabolized | Compound NOT metabolized | Compound NOT metabolized | Compound metabolized | Compound metabolized | Compound NOT metabolized | Compound metabolized | Compound NOT metabolized | Compound NOT metabolized | Compound NOT metabolized | Compound NOT metabolized | CC(=O)O[C@H]1C(=O)[C@@]2(C)[C@H]([C@H](OC(=O)c3ccccc3)[C@]3(O)C[C@H](OC(=O)[C@H](O)[C@@H](NC(=O)c4ccccc4)c4ccccc4)C(C)=C1C3(C)C)[C@]1(OC(C)=O)CO[C@@H]1C[C@@H]2O [PACLITAXEL]
Compound metabolized | Compound metabolized | Compound metabolized | Compound metabolized | Compound metabolized | Compound metabolized | Compound NOT metabolized | Compound metabolized | Compound NOT metabolized | Compound metabolized | Compound NOT metabolized | Compound metabolized | Compound metabolized | Compound metabolized | Compound metabolized | Compound NOT metabolized | Compound metabolized | Compound NOT metabolized | Compound metabolized | Compound metabolized | CC(C)(C)N.CCC[C@H](N[C@@H](C)C(=O)N1[C@H](C(=O)O)C[C@@H]2CCCC[C@@H]21)C(=O)OCC [PERINDOPRIL ERBUMINE]
Compound NOT metabolized | Compound metabolized | Compound NOT metabolized | Compound NOT metabolized | Compound metabolized | Compound NOT metabolized | Compound NOT metabolized | Compound NOT metabolized | Compound NOT metabolized | Compound metabolized | Compound NOT metabolized | Compound NOT metabolized | Compound NOT metabolized | Compound NOT metabolized | Compound NOT metabolized | Compound NOT metabolized | Compound NOT metabolized | Compound NOT metabolized | Compound NOT metabolized | Compound metabolized | C=C[C@H]1CN2CC[C@H]1C[C@H]2[C@H](O)c1ccnc2ccc(OC)cc12.C=C[C@H]1CN2CC[C@H]1C[C@H]2[C@H](O)c1ccnc2ccc(OC)cc12.O.O.O=S(=O)(O)O [QUININE SULFATE]

Structure (SMILES) | Bacterial Biotransformation [1] | Bacterial Biotransformation [2] | Bacterial Biotransformation [3] | Bacterial Biotransformation [4] | Bacterial Biotransformation [5] | Bacterial Biotransformation [6] | Bacterial Biotransformation [7] | Bacterial Biotransformation [8] | Bacterial Biotransformation [9] | Bacterial Biotransformation [10] | Bacterial Biotransformation [11] | Bacterial Biotransformation [12] | Bacterial Biotransformation [13] | Bacterial Biotransformation [14] | Bacterial Biotransformation [15] | Bacterial Biotransformation [16] | Bacterial Biotransformation [17] | Bacterial Biotransformation [18] | Bacterial Biotransformation [19] | Bacterial Biotransformation [20]
CN(C)C(=O)Oc1cccc([N+](C)(C)C)c1.[Br-] [NEOSTIGMINE BROMIDE] | Compound NOT metabolized | Compound NOT metabolized | Compound NOT metabolized | Compound NOT metabolized | Compound NOT metabolized | Compound NOT metabolized | Compound NOT metabolized | Compound NOT metabolized | Compound NOT metabolized | Compound NOT metabolized | Compound NOT metabolized | Compound NOT metabolized | Compound NOT metabolized | Compound NOT metabolized | Compound NOT metabolized | Compound NOT metabolized | Compound NOT metabolized | Compound NOT metabolized | Compound NOT metabolized | Compound NOT metabolized
CC(=O)CCCCn1c(=O)c2c(ncn2C)n(C)c1=O [PENTOXIFYLLINE] | Compound NOT metabolized | Compound NOT metabolized | Compound NOT metabolized | Compound NOT metabolized | Compound metabolized | Compound NOT metabolized | Compound NOT metabolized | Compound NOT metabolized | Compound NOT metabolized | Compound metabolized | Compound NOT metabolized | Compound NOT metabolized | Compound NOT metabolized | Compound NOT metabolized | Compound NOT metabolized | Compound NOT metabolized | Compound NOT metabolized | Compound NOT metabolized | Compound NOT metabolized | Compound NOT metabolized
CCCN1C[C@H](CSC)C[C@@H]2c3cccc4[nH]cc(c34)C[C@H]21.CS(=O)(=O)O [PERGOLIDE MESYLATE] | Compound NOT metabolized | Compound NOT metabolized | Compound NOT metabolized | Compound NOT metabolized | Compound NOT metabolized | Compound NOT metabolized | Compound metabolized | Compound NOT metabolized | Compound NOT metabolized | Compound metabolized | Compound NOT metabolized | Compound NOT metabolized | Compound NOT metabolized | Compound NOT metabolized | Compound NOT metabolized | Compound NOT metabolized | Compound NOT metabolized | Compound NOT metabolized | Compound NOT metabolized | Compound NOT metabolized
